Results published in patent publication US11905294B2, “Imidazo[1,5-a]pyrazine derivatives as PI3Kδ inhibitors” (BEIGENE, LTD., priority 2017, dated 2024).

Key:
Assay type in all cases: biochemical
PI3K (p110δ/p85α) = PI3K (p110δ/p85α) (Homo sapiens, UniProt O00329); assay: PI3Kδ assay (ADP-Glo Kinase Assay); conditions: recombinant enzyme; IC50 (nM) or max inhibition (%) at 0.5 μM
Description: Compounds disclosed herein were tested for inhibition of PI3Kδ kinase activity using commercial ADP-Glo™ Kinase Assay (Promega Corporation) and following the manufacture's instruction. Briefly, recombinant PI3K (p110δ/p85α) enzyme, lipid kinase substrate and a serial dilution of compounds disclosed herein were incubated for 0.5 hr at room temperature. ATP was added to initiate the kinase reaction. After incubation for 1 hr at room temperature, ADP-Glo™ reagent was added to terminate the kinase reaction and deplete the remaining ATP. After incubation for 1 hr at room temperature, kinase detection reagent was added to simultaneously convert ADP to ATP and allow the newly synthesized ATP to be measured using a luciferase/luciferin reaction. After incubation for 0.5 hr at room temperature, the luminescence generated was measured on a PHERAstar FS plate reader (BMG LABTECH). The residual enzyme activity in presence of increasing concentrations of compounds was calculated based on the luminescence. The IC50 for each compound was derived from fitting the data to the four-parameter logistic equation by Graphpad Prism software.

PI3K (p110α/p85α) = PI3K (p110α/p85α) (Homo sapiens, UniProt P42336); assay: PI3Kα assay (ADP-Glo Kinase Assay); conditions: recombinant enzyme; IC50 (nM) or max inhibition (%) at 0.5 μM
PI3K (p110α/p85α), sequence (P42336 whole entry): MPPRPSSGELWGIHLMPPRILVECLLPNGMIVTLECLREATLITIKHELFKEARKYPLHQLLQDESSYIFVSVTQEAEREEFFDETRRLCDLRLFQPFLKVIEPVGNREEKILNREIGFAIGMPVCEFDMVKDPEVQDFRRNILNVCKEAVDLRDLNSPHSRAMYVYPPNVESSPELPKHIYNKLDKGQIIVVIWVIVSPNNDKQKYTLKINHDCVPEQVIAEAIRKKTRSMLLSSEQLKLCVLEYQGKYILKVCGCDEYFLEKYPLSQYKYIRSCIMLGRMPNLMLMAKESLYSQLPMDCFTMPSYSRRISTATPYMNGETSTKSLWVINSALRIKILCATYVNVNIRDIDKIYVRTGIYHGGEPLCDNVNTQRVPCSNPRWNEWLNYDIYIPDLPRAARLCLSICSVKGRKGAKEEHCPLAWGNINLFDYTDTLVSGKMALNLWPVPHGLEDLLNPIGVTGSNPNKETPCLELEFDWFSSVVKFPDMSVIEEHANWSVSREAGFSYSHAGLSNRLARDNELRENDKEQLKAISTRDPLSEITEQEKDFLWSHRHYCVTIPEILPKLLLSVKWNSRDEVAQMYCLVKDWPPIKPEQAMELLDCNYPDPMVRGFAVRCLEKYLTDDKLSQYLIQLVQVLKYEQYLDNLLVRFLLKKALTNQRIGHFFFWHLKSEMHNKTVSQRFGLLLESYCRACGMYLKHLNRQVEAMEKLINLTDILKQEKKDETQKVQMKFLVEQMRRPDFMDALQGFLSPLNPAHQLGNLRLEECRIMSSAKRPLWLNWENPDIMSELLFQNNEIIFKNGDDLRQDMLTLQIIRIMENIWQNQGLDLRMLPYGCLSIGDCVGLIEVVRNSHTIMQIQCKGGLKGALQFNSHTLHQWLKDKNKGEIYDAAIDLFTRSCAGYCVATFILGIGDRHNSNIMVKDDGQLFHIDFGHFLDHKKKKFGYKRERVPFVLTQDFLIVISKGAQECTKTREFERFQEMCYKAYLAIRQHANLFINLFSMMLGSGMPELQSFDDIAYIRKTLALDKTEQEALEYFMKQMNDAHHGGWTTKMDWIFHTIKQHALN
PI3K (p110α/p85α), sequence (P27986 whole entry partner): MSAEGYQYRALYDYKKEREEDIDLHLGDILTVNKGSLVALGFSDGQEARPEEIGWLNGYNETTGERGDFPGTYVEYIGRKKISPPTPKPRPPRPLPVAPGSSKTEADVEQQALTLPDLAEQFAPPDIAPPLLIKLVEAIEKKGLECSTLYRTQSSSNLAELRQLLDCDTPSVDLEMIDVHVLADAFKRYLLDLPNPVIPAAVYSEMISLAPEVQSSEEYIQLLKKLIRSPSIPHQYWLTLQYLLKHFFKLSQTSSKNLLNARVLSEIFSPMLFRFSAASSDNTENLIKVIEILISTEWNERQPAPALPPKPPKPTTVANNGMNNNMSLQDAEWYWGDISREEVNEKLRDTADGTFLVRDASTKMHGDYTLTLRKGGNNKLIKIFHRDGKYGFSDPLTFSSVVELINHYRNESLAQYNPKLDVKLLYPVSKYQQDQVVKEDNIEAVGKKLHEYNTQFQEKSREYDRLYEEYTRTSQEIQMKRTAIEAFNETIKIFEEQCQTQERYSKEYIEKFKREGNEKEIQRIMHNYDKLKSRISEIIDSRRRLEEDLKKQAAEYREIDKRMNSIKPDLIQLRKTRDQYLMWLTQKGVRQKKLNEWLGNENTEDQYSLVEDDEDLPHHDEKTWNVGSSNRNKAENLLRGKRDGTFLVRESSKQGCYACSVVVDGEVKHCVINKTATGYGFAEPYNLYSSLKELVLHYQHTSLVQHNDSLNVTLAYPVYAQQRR

PI3K (p110β/p85α) = PI3K (p110β/p85α) (Homo sapiens, UniProt P42338); assay: PI3Kβ assay (ADP-Glo Kinase Assay); conditions: read-out: Enzyme activity IC50 PI3Kβ
PI3K (p110β/p85α), sequence (P42338 whole entry): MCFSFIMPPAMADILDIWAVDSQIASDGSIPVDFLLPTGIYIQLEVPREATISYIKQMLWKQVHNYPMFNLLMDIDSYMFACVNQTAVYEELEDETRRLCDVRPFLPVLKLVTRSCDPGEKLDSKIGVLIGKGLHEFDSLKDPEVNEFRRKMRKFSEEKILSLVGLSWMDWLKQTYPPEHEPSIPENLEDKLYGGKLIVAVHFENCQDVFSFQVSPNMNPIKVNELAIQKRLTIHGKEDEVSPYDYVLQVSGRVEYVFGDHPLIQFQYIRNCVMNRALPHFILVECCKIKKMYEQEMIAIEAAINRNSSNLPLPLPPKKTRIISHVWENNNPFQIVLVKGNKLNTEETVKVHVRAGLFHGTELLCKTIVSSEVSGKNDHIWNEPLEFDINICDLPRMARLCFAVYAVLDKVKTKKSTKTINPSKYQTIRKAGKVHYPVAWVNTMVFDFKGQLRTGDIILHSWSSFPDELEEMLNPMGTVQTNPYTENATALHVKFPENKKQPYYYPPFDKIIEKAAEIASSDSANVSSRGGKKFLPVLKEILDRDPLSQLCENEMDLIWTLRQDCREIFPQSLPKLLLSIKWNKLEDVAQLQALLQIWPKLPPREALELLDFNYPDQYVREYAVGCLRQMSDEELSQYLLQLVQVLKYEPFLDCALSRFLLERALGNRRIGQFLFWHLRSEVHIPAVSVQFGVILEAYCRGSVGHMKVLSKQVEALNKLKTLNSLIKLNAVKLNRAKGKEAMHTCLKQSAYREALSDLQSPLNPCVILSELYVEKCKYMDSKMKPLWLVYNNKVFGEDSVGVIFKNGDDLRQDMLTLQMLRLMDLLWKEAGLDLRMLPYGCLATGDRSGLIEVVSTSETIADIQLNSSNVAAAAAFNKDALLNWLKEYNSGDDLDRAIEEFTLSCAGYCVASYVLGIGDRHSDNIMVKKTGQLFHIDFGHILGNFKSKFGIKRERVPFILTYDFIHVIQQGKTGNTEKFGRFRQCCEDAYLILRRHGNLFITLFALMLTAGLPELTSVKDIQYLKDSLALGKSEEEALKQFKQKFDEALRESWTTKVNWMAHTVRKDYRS
PI3K (p110β/p85α), sequence (P27986 whole entry partner): as the sequence (P27986 whole entry partner) above

PI3K (p110γ) = PI3K (p110γ) (Homo sapiens, UniProt P48736); assay: PI3Kγ assay (ADP-Glo Kinase Assay); conditions: recombinant enzyme; IC50 (nM) or max inhibition (%) at 0.5 μM
PI3K (p110γ), sequence (P48736 whole entry): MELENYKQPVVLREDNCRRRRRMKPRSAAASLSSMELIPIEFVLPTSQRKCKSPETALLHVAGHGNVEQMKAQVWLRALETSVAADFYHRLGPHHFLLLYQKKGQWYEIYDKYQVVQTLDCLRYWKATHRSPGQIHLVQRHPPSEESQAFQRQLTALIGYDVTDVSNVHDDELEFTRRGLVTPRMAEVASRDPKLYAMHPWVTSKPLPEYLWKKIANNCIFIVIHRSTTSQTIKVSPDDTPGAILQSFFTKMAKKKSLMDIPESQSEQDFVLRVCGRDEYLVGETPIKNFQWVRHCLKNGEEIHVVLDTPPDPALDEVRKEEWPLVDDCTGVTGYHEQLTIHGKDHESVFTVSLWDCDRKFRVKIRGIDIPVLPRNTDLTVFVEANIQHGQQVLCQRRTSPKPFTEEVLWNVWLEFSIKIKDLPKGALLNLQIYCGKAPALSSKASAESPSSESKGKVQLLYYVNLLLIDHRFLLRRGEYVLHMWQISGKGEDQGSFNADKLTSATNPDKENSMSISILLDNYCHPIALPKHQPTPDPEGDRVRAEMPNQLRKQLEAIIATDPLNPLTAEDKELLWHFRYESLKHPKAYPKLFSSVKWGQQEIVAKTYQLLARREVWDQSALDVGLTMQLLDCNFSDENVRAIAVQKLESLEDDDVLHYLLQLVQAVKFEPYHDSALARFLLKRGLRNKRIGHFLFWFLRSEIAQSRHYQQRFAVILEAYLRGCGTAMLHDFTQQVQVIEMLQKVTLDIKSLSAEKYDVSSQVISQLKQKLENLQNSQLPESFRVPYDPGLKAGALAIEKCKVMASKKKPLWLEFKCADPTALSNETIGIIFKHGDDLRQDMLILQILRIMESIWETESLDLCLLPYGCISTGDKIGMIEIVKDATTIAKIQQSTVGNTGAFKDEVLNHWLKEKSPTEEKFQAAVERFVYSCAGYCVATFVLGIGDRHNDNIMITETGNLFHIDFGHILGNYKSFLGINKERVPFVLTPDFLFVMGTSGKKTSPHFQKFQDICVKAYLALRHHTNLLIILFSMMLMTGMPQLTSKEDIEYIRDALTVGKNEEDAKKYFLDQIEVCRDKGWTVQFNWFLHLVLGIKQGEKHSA

PI3K (p110δ/p85α), sequence (O00329 whole entry): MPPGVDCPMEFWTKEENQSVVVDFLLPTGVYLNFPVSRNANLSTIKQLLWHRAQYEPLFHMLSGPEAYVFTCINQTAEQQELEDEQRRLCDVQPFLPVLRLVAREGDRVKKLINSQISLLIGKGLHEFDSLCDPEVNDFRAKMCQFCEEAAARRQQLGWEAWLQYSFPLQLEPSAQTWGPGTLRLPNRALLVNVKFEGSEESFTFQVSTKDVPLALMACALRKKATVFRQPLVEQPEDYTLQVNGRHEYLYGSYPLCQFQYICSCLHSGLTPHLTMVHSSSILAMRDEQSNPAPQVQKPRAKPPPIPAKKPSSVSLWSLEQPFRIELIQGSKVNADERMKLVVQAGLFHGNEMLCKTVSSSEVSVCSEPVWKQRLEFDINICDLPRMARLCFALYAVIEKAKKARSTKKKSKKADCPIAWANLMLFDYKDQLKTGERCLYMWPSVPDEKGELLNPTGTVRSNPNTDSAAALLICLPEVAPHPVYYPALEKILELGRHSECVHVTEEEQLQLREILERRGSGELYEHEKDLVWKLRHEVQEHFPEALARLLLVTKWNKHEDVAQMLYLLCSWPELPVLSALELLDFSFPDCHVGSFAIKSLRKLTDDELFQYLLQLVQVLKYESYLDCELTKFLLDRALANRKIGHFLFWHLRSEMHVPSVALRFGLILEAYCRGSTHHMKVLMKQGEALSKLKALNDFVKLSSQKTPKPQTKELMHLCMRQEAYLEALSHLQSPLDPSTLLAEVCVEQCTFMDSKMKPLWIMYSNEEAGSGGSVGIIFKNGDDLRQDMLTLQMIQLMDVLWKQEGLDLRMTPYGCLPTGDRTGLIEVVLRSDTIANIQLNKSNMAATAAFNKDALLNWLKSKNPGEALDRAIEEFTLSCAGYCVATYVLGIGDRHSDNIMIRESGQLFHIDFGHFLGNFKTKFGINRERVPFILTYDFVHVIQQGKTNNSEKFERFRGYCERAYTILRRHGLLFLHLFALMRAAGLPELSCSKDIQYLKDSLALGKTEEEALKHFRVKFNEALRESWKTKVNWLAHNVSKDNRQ
PI3K (p110δ/p85α), sequence (P27986 whole entry partner): as the sequence (P27986 whole entry partner) above

| Structure (SMILES) | IC50 (PI3K (p110δ/p85α)) [nM] | IC50 (PI3K (p110α/p85α)) [nM] | IC50 (PI3K (p110β/p85α)) [µM] | IC50 (PI3K (p110γ)) [nM] |
| --- | --- | --- | --- | --- |
| Cc1nc([C@@H](C)c2cc(Cl)c(F)c(C(=O)NCC3CC3)c2OC(C)C)n2ccnc(N)c12 [Compound 42, (S)-3-(1-(8-amino-1-methylimidazo[1,5-a]pyrazin-3-yl)ethyl)-5-chloro-N-(cyclopropylmethyl)-6-fluoro-2-isopropoxybenzamide] | 1.2 | 36000 | 21 | 4800 |
| Cc1nc([C@@H](C)c2cc(Cl)c(F)c(C(=O)N[C@@H]3CCCOC3)c2OC(C)C)n2ccnc(N)c12 [Compound 44, 3-((S)-1-(8-amino-1-methylimidazo[1,5-a]pyrazin-3-yl)ethyl)-5-chloro-6-fluoro-2-isopropoxy-N-((R)-tetrahydro-2H-pyran-3-yl)benzamide] | 0.74 | 20000 | 30 | 5000 |
| Cc1nc([C@@H](C)c2cc(Cl)c(F)c(C(=O)N[C@H]3CCCC[C@H]3O)c2OC(C)C)n2ccnc(N)c12 [Compound 47, 3-((S)-1-(8-amino-1-methylimidazo[1,5-a]pyrazin-3-yl)ethyl)-5-chloro-6-fluoro-N-((1S,2R)-2-hydroxycyclohexyl)-2-isopropoxybenzamide] | 2.5 | 27000 | 26 | 5800 |
| Cc1nc([C@@H](C)c2cc(Cl)c(F)c(C(=O)NCC3CCCOC3)c2OC(C)C)n2ccnc(N)c12 (stereo partly drawn) [Compound 50, 3-((S)-1-(8-amino-1-methylimidazo[1,5-a]pyrazin-3-yl)ethyl)-5-chloro-6-fluoro-2-isopropoxy-N-((tetrahydro-2H-pyran-3-yl)methyl)benzamide] | 1.2 | 15000 | 20 | 6100 |
| Cc1nc([C@@H](C)c2cc(Cl)c(F)c(C(=O)NCC3CCOCC3)c2OC(C)C)n2ccnc(N)c12 [Compound 51, (S)-3-(1-(8-amino-1-methylimidazo[1,5-a]pyrazin-3-yl)ethyl)-5-chloro-6-fluoro-2-isopropoxy-N-((tetrahydro-2H-pyran-4-yl)methyl)benzamide] | 0.97 | 27000 | 6.4 | 4500 |
| Cc1nc([C@@H](C)c2cc(Cl)c(F)c(C(=O)N[C@@H]3CCC[C@H]3O)c2OC(C)C)n2ccnc(N)c12 [Compound 58, 3-((S)-1-(8-amino-1-methylimidazo[1,5-a]pyrazin-3-yl)ethyl)-5-chloro-6-fluoro-N-((1R,2R)-2-hydroxycyclopentyl)-2-isopropoxybenzamide] | 2.2 | 14000 | 16 | 2800 |
| Cc1nc([C@@H](C)c2cc(Cl)c(F)c(C(=O)N[C@H](C)c3ccnc(C(F)(F)F)c3)c2OC(C)C)n2ccnc(N)c12 [Compound 59B, 3((S)-1-(8-amino-1-methylimidazo[1,5-a]pyrazin-3-yl)ethyl)-5-chloro-6-fluoro-2-isopropoxy-N-((R)-1-(2-(trifluoromethyl)pyridin-4-yl)ethyl)benzamide] | 1.5 | 14000 | 26 | 2800 |
| Cc1nc([C@@H](C)c2cc(Cl)c(F)c(C(=O)N[C@H]3C[C@H](O)C3)c2OC(C)C)n2ccnc(N)c12 [Compound 61, 3-((S)-1-(8-amino-1-methylimidazo[1,5-a]pyrazin-3-yl)ethyl)-5-chloro-6-fluoro-N-((trans)-3-hydroxycyclobutyl)-2-isopropoxybenzamide] | 1.4 | 21000 | 12 | 4500 |
| Cc1nc([C@@H](C)c2cc(Cl)c(F)c(C(=O)N[C@H]3CC[C@@H](O)CC3)c2OC(C)C)n2ccnc(N)c12 [Compound 62, 3((S)-1-(8-amino-1-methylimidazo[1,5-a]pyrazin-3-yl)ethyl)-5-chloro-6-fluoro-N-((cis)-4-hydroxycyclohexyl)-2-isopropoxybenzamide] | 1.4 | 17000 | 29 | 9000 |

Further molecules by falling IC50 (PI3K (p110δ/p85α)), results first:

| IC50 (PI3K (p110δ/p85α)) [nM] | IC50 (PI3K (p110α/p85α)) [nM] | IC50 (PI3K (p110β/p85α)) [µM] | IC50 (PI3K (p110γ)) [nM] | Structure (SMILES) |
| --- | --- | --- | --- | --- |
| 2.2 | 21000 | > 50 | 3400 | Cc1nc([C@@H](C)c2cc(Cl)c(F)c(C(=O)N3C[C@H](C)O[C@@H](C)C3)c2OC(C)C)n2ccnc(N)c12 [Compound 43, (3-((S)-1-(8-amino-1-methylimidazo[1,5-a]pyrazin-3-yl)ethyl)-5-chloro-6-fluoro-2-isopropoxyphenyl)((2S,6S)-2,6-dimethylmorpholino)methanone] |
| 2.1 | 8300 | 14 | 1200 | Cc1nc([C@@H](C)c2cc(Cl)c(F)c(C(=O)N[C@@H](C)c3ccnc(C(F)(F)F)c3)c2OC(C)C)n2ccnc(N)c12 [Compound 59A, 3-((S)-1-(8-amino-1-methylimidazo[1,5-a]pyrazin-3-yl)ethyl)-5-chloro-6-fluoro-2-isopropoxy-N-((S)-1-(2-(trifluoromethyl)pyridin-4-yl)ethyl)benzamide] |
| 1.9 | 28000 | 44 | 4500 | Cc1nc([C@@H](C)c2cc(Cl)c(F)c(C(=O)NC3(CN4CCN(CC5CC5)CC4)CC3)c2OC(C)C)n2ccnc(N)c12 [Compound 56, (S)-3-(1-(8-amino-1-methylimidazo[1,5-a]pyrazin-3-yl)ethyl)-5-chloro-N-(1-((4-(cyclopropylmethyl)piperazin-1-yl)methyl)cyclopropyl)-6-fluoro-2-isopropoxybenzamide] |
| 1.8 | 13000 | 11 | 2200 | Cc1nc([C@@H](C)c2cc(Cl)c(F)c(C(=O)NCC3(O)COC3)c2OC(C)C)n2ccnc(N)c12 [Compound 55, (S)-3-(1-(8-amino-1-methylimidazo[1,5-a]pyrazin-3-yl)ethyl)-5-chloro-6-fluoro-N-((3-hydroxyoxetan-3-yl)methyl)-2-isopropoxybenzamide] |
| 1.4 | 10000 | 40 | 2500 | Cc1nc([C@@H](C)c2cc(Cl)c(F)c(C(=O)N3CC4CCC(C3)O4)c2OC(C)C)n2ccnc(N)c12 [Compound 52, (3-((S)-1-(8-amino-1-methylimidazo[1,5-a]pyrazin-3-yl)ethyl)-5-chloro-6-fluoro-2-isopropoxyphenyl)(8-oxa-3-azabicyclo[3.2.1]octan-3-yl)methanone] |
| 1.1 | 16000 | 32 | 2800 | Cc1nc([C@@H](C)c2cc(Cl)c(F)c(C(=O)N[C@H]3CCCOC3)c2OC(C)C)n2ccnc(N)c12 [Compound 45, 3-((S)-1-(8-amino-1-methylimidazol[1,5-a]pyrazin-3-yl)ethyl)-5-chloro-6-fluoro-2-isopropoxy-N-((S)-tetrahydro-2H-pyran-3-yl)benzamide] |
| 1.1 | 18000 | 12 | 4900 | Cc1nc([C@@H](C)c2cc(Cl)c(F)c(C(=O)NC[C@H](C)O)c2OC(C)C)n2ccnc(N)c12 [Compound 57, 3-((S)-1-(8-amino-1-methylimidazo[1,5-a]pyrazin-3-yl)ethyl)-5-chloro-6-fluoro-N-((S)-2-hydroxypropyl)-2-isopropoxybenzamide] |
| 1.1 | 38000 | 7.4 | 4200 | Cc1nc([C@@H](C)c2cc(Cl)c(F)c(C(=O)N[C@H]3C[C@@H](O)C3)c2OC(C)C)n2ccnc(N)c12 [Compound 63, 3-((S)-1-(8-amino-1-methylimidazo[1,5-a]pyrazin-3-yl)ethyl)-5-chloro-6-fluoro-N-((cis)-3-hydroxycyclobutyl)-2-isopropoxybenzamide] |
| 0.99 | 20000 | 4.9 | 5500 | CCCNC(=O)c1c(F)c(Cl)cc([C@H](C)c2nc(C)c3c(N)nccn23)c1OC(C)C [Compound 41, (S)-3-(1-(8-amino-1-methylimidazo[1,5-a]pyrazin-3-yl)ethyl)-5-chloro-6-fluoro-2-isopropoxy-N-propylbenzamide] |
| 0.94 | 9700 | 39 | 2100 | Cc1nc([C@@H](C)c2cc(Cl)c(F)c(C(=O)N[C@H]3CCCC[C@@H]3O)c2OC(C)C)n2ccnc(N)c12 [Compound 46, 3((S)-1-(8-amino-1-methylimidazo[1,5-a]pyrazin-3-yl)ethyl)-5-chloro-6-fluoro-N-((1S,2S)-2-hydroxycyclohexyl)-2-isopropoxybenzamide] |
| 0.9 | 10000 | 2.3 | 28000 | Cc1nc([C@@H](C)c2cc(Cl)c(F)c(C(=O)N[C@]3(C)C[C@@H](O)C3)c2OC(C)C)n2ccnc(N)c12 [Compound 39, 3-((S)-1-(8-amino-1-methylimidazo[1,5-a]pyrazin-3-yl)ethyl)-5-chloro-6-fluoro-N-((1r,3S)-3-hydroxy-1-methylcyclobutyl)-2-isopropoxybenzamide] |
| 0.68 | 14000 | 11 | 2400 | Cc1nc([C@@H](C)c2cc(Cl)c(F)c(C(=O)N[C@@H]3CC[C@@H](O)C3)c2OC(C)C)n2ccnc(N)c12 [Compound 53, 3-((S)-1-(8-amino-1-methylimidazo[1,5-a]pyrazin-3-yl)ethyl)-5-chloro-6-fluoro-N-((1R,3R)-3-hydroxycyclopentyl)-2-isopropoxybenzamide] |
